# Measured values taken from patent US11571411B2, “Use of a bisamide derivative of malonic acid for treating allergic and other diseases in humans and animals” (PHARMENTERPRISES ALLERGY LLC, priority 2018, dated 2023).
# Tested on: histamine-induced nasal congestion model
# Experiment: Histamine-induced nasal congestion model in dogs, oral administration
# Format: in vivo, Beagle dogs
# Experimental: A histamine-induced nasal congestion model in dogs was performed according to the standard procedure [Tiniakov R. L., Tiniakova O. P., McLeod R. L., Hey J. A., Yeates D. B. Canine model of nasal congestion and allergic rhinitis//J Appl Physiol. 2003. V.94(5). P.1821-1828]. Beagle dogs were injected in the nasal cavity with a 5% histamine solution in a volume of 250 μl/nostril. The volume of the nasal cavity of the right and left nostrils was measured using a rhinometer before and 5, 10, 15, 20, 30, 40, 50 and 60 minutes after administration of histamine. Three experiments were performed, in which Compound I was administered orally once at different times: 1) 30 minutes before administration of histamine; 2) 1 hour before administration of histamine; and 3) 6 hours before administration of histamine, and one experiment was performed, in which Compound I was administered orally once daily for 14 days, the last administration was carried out 1 hour before administration of histamine.
# [1] = oral 6 hours before histamine, 0.54 mg/kg, 40 minutes after histamine
# [2] = oral 6 hours before histamine, 0.54 mg/kg, 50 minutes after histamine
# [3] = oral 6 hours before histamine, 0.54 mg/kg, 60 minutes after histamine
# [4] = oral 6 hours before histamine, 0.54 mg/kg, before histamine administration
# [5] = oral for 14 days, 0.13 mg/kg, 5 minutes after histamine
# [6] = oral for 14 days, 0.13 mg/kg, 10 minutes after histamine
# [7] = oral for 14 days, 0.13 mg/kg, 15 minutes after histamine
# [8] = oral for 14 days, 0.13 mg/kg, 20 minutes after histamine
# [9] = oral for 14 days, 0.13 mg/kg, 30 minutes after histamine
# [10] = oral for 14 days, 0.13 mg/kg, 40 minutes after histamine
# [11] = oral for 14 days, 0.13 mg/kg, before histamine administration
# [12] = oral for 14 days, 0.27 mg/kg, 5 minutes after histamine
# [13] = oral for 14 days, 0.27 mg/kg, 10 minutes after histamine
# [14] = oral for 14 days, 0.27 mg/kg, 15 minutes after histamine
# [15] = oral for 14 days, 0.27 mg/kg, 20 minutes after histamine
# [16] = oral for 14 days, 0.27 mg/kg, 30 minutes after histamine
# [17] = oral for 14 days, 0.27 mg/kg, 40 minutes after histamine
# [18] = oral for 14 days, 0.27 mg/kg, before histamine administration
# [19] = oral for 14 days, 0.54 mg/kg, 5 minutes after histamine
# [20] = oral for 14 days, 0.54 mg/kg, 10 minutes after histamine
# [21] = oral for 14 days, 0.54 mg/kg, 15 minutes after histamine
# [22] = oral for 14 days, 0.54 mg/kg, 20 minutes after histamine
# [23] = oral for 14 days, 0.54 mg/kg, before histamine administration
# [24] = oral once 30 minutes before histamine, 0.005 mg/kg, 5 minutes after histamine
# [25] = oral once 30 minutes before histamine, 0.005 mg/kg, 10 minutes after histamine
# [26] = oral once 30 minutes before histamine, 0.005 mg/kg, 15 minutes after histamine
# [27] = oral once 30 minutes before histamine, 0.005 mg/kg, 20 minutes after histamine
# [28] = oral once 30 minutes before histamine, 0.005 mg/kg, 30 minutes after histamine
# [29] = oral once 30 minutes before histamine, 0.005 mg/kg, 40 minutes after histamine
# [30] = oral once 30 minutes before histamine, 0.005 mg/kg, 50 minutes after histamine
# [31] = oral once 30 minutes before histamine, 0.005 mg/kg, 60 minutes after histamine
# [32] = oral once 30 minutes before histamine, 0.005 mg/kg, before histamine administration
# [33] = oral once 30 minutes before histamine, 0.05 mg/kg, 5 minutes after histamine
# [34] = oral once 30 minutes before histamine, 0.05 mg/kg, 10 minutes after histamine
# [35] = oral once 30 minutes before histamine, 0.05 mg/kg, 15 minutes after histamine
# [36] = oral once 30 minutes before histamine, 0.05 mg/kg, 20 minutes after histamine
# [37] = oral once 30 minutes before histamine, 0.05 mg/kg, 30 minutes after histamine
# [38] = oral once 30 minutes before histamine, 0.05 mg/kg, 40 minutes after histamine
# [39] = oral once 30 minutes before histamine, 0.05 mg/kg, 50 minutes after histamine
# [40] = oral once 30 minutes before histamine, 0.05 mg/kg, 60 minutes after histamine
# [41] = oral once 30 minutes before histamine, 0.05 mg/kg, before histamine administration
# [42] = oral once 30 minutes before histamine, 0.54 mg/kg, 5 minutes after histamine
# [43] = oral once 30 minutes before histamine, 0.54 mg/kg, 10 minutes after histamine
# [44] = oral once 30 minutes before histamine, 0.54 mg/kg, 15 minutes after histamine
# [45] = oral once 30 minutes before histamine, 0.54 mg/kg, 20 minutes after histamine
# [46] = oral once 30 minutes before histamine, 0.54 mg/kg, 30 minutes after histamine
# [47] = oral once 30 minutes before histamine, 0.54 mg/kg, 40 minutes after histamine
# [48] = oral once 30 minutes before histamine, 0.54 mg/kg, 50 minutes after histamine
# [49] = oral once 30 minutes before histamine, 0.54 mg/kg, 60 minutes after histamine
# [50] = oral once 30 minutes before histamine, 0.54 mg/kg, before histamine administration
structure (smiles),measurement,setting,value
"O=C(CC(=O)NCCc1cnc[nH]1)NCCc1cnc[nH]1 [Compound I, N,N′-bis(2-(1H-imidazol-5-yl)ethyl)malonamide]","Volume of the nasal cavity, left nostril",[1],3.5 ± 0.1$ cm^3
same,"Volume of the nasal cavity, right nostril",[1],3.5 ± 0.1$ cm^3
same,"Volume of the nasal cavity, left nostril",[2],2.9 ± 0.1$ cm^3
same,"Volume of the nasal cavity, right nostril",[2],2.9 ± 0.2$ cm^3
same,"Volume of the nasal cavity, left nostril",[3],2.9 ± 0.1$ cm^3
same,"Volume of the nasal cavity, right nostril",[3],3.0 ± 0.1$ cm^3
same,"Volume of the nasal cavity, left nostril",[4],4.1 ± 0.2 cm^3
same,"Volume of the nasal cavity, right nostril",[4],4.1 ± 0.2 cm^3
same,"Volume of the nasal cavity, left nostril",[5],2.7 ± 0.2$ cm^3
same,"Volume of the nasal cavity, right nostril",[5],2.7 ± 0.2$ cm^3
same,"Volume of the nasal cavity, left nostril",[6],3.2 ± 0.2*$ cm^3
same,"Volume of the nasal cavity, right nostril",[6],3.3 ± 0.2*$ cm^3
same,"Volume of the nasal cavity, left nostril",[7],2.5 ± 0.2*$ cm^3
same,"Volume of the nasal cavity, right nostril",[7],2.5 ± 0.1*$ cm^3
same,"Volume of the nasal cavity, left nostril",[8],2.4 ± 0.2*$ cm^3
same,"Volume of the nasal cavity, right nostril",[8],2.4 ± 0.2*$ cm^3
same,"Volume of the nasal cavity, left nostril",[9],3.2 ± 0.2*$ cm^3
same,"Volume of the nasal cavity, right nostril",[9],3.2 ± 0.2*$ cm^3
same,"Volume of the nasal cavity, left nostril",[10],3.6 ± 0.2*$ cm^3
same,"Volume of the nasal cavity, right nostril",[10],3.6 ± 0.2$ cm^3
same,"Volume of the nasal cavity, left nostril",[11],4.5 ± 0.1 cm^3
same,"Volume of the nasal cavity, right nostril",[11],4.5 ± 0.1 cm^3
same,"Volume of the nasal cavity, left nostril",[12],2.8 ± 0.2$ cm^3
same,"Volume of the nasal cavity, right nostril",[12],2.7 ± 0.2$ cm^3
same,"Volume of the nasal cavity, left nostril",[13],3.6 ± 0.2*$ cm^3
same,"Volume of the nasal cavity, right nostril",[13],3.6 ± 0.2*$ cm^3
same,"Volume of the nasal cavity, left nostril",[14],2.8 ± 0.3*$ cm^3
same,"Volume of the nasal cavity, right nostril",[14],2.8 ± 0.2*$ cm^3
same,"Volume of the nasal cavity, left nostril",[15],2.7 ± 0.1*$ cm^3
same,"Volume of the nasal cavity, right nostril",[15],2.7 ± 0.2*$ cm^3
same,"Volume of the nasal cavity, left nostril",[16],3.3 ± 0.2*$ cm^3
same,"Volume of the nasal cavity, right nostril",[16],3.3 ± 0.1*$ cm^3
same,"Volume of the nasal cavity, left nostril",[17],3.8 ± 0.2*$ cm^3
same,"Volume of the nasal cavity, right nostril",[17],3.8 ± 0.2*$ cm^3
same,"Volume of the nasal cavity, left nostril",[18],4.5 ± 0.2 cm^3
same,"Volume of the nasal cavity, right nostril",[18],4.5 ± 0.1 cm^3
same,"Volume of the nasal cavity, left nostril",[19],3.1 ± 0.3$ cm^3
same,"Volume of the nasal cavity, right nostril",[19],2.7 ± 0.2$ cm^3
same,"Volume of the nasal cavity, left nostril",[20],3.4 ± 0.2*$ cm^3
same,"Volume of the nasal cavity, right nostril",[20],3.4 ± 0.1*$ cm^3
same,"Volume of the nasal cavity, left nostril",[21],2.6 ± 0.1*$ cm^3
same,"Volume of the nasal cavity, right nostril",[21],2.6 ± 0.1*$ cm^3
same,"Volume of the nasal cavity, left nostril",[22],2.5 ± 0.2*$ cm^3
same,"Volume of the nasal cavity, right nostril",[22],2.5 ± 0.2*$ cm^3
same,"Volume of the nasal cavity, left nostril",[23],4.4 ± 0.1 cm^3
same,"Volume of the nasal cavity, right nostril",[23],4.5 ± 0.1 cm^3
same,"Volume of the nasal cavity, left nostril",[24],3.5 ± 0.2$ cm^3
same,"Volume of the nasal cavity, right nostril",[24],3.4 ± 0.1$ cm^3
same,"Volume of the nasal cavity, left nostril",[25],2.6 ± 0.2$ cm^3
same,"Volume of the nasal cavity, right nostril",[25],2.5 ± 0.2$ cm^3
same,"Volume of the nasal cavity, left nostril",[26],2.2 ± 0.2$^ cm^3
same,"Volume of the nasal cavity, right nostril",[26],2.1 ± 0.2$^ cm^3
same,"Volume of the nasal cavity, left nostril",[27],1.9 ± 0.3 cm^3
same,"Volume of the nasal cavity, right nostril",[27],2.0 ± 0.2$^ cm^3
same,"Volume of the nasal cavity, left nostril",[28],2.5 ± 0.1&$ cm^3
same,"Volume of the nasal cavity, right nostril",[28],2.8 ± 0.2&$ cm^3
same,"Volume of the nasal cavity, left nostril",[29],3.9 ± 0.1& cm^3
same,"Volume of the nasal cavity, right nostril",[29],3.8 ± 0.2& cm^3
same,"Volume of the nasal cavity, left nostril",[30],3.9 ± 0.1& cm^3
same,"Volume of the nasal cavity, right nostril",[30],4.0 ± 0.2& cm^3
same,"Volume of the nasal cavity, left nostril",[31],4.0 ± 0.1 cm^3
same,"Volume of the nasal cavity, right nostril",[31],3.5 ± 0.1$ cm^3
same,"Volume of the nasal cavity, left nostril",[32],4.3 ± 0.3 cm^3
same,"Volume of the nasal cavity, right nostril",[32],4.6 ± 0.3 cm^3
same,"Volume of the nasal cavity, left nostril",[33],3.4 ± 0.1$ cm^3
same,"Volume of the nasal cavity, right nostril",[33],3.3 ± 0.2$ cm^3
same,"Volume of the nasal cavity, left nostril",[34],2.5 ± 0.1$ cm^3
same,"Volume of the nasal cavity, right nostril",[34],2.4 ± 0.2$ cm^3
same,"Volume of the nasal cavity, left nostril",[35],2.8 ± 0.1&$ cm^3
same,"Volume of the nasal cavity, right nostril",[35],2.6 ± 0.2&$ cm^3
same,"Volume of the nasal cavity, left nostril",[36],3.3 ± 0.1&$ cm^3
same,"Volume of the nasal cavity, right nostril",[36],3.3 ± 0.3&$ cm^3
same,"Volume of the nasal cavity, left nostril",[37],4.1 ± 0.1& cm^3
same,"Volume of the nasal cavity, right nostril",[37],3.8 ± 0.1& cm^3
same,"Volume of the nasal cavity, left nostril",[38],4.2 ± 0.3& cm^3
same,"Volume of the nasal cavity, right nostril",[38],4.2 ± 0.2& cm^3
same,"Volume of the nasal cavity, left nostril",[39],4.2 ± 0.1& cm^3
same,"Volume of the nasal cavity, right nostril",[39],4.5 ± 0.1& cm^3
same,"Volume of the nasal cavity, left nostril",[40],4.3 ± 0.1 cm^3
same,"Volume of the nasal cavity, right nostril",[40],4.5 ± 0.3 cm^3
same,"Volume of the nasal cavity, left nostril",[41],4.3 ± 0.2 cm^3
same,"Volume of the nasal cavity, right nostril",[41],4.2 ± 0.2 cm^3
same,"Volume of the nasal cavity, left nostril",[42],2.9 ± 0.1$ cm^3
same,"Volume of the nasal cavity, right nostril",[42],3.0 ± 0.2$ cm^3
same,"Volume of the nasal cavity, left nostril",[43],2.6 ± 0.1$ cm^3
same,"Volume of the nasal cavity, right nostril",[43],2.5 ± 0.1$ cm^3
same,"Volume of the nasal cavity, left nostril",[44],3.7 ± 0.3&$ cm^3
same,"Volume of the nasal cavity, right nostril",[44],3.8 ± 0.1&$ cm^3
same,"Volume of the nasal cavity, left nostril",[45],3.8 ± 0.2& cm^3
same,"Volume of the nasal cavity, right nostril",[45],3.7 ± 0.1&$ cm^3
same,"Volume of the nasal cavity, left nostril",[46],3.8 ± 0.1&$ cm^3
same,"Volume of the nasal cavity, right nostril",[46],3.8 ± 0.2&$ cm^3
same,"Volume of the nasal cavity, left nostril",[47],4.2 ± 0.3& cm^3
same,"Volume of the nasal cavity, right nostril",[47],4.2 ± 0.3& cm^3
same,"Volume of the nasal cavity, left nostril",[48],3.9 ± 0.2$ cm^3
same,"Volume of the nasal cavity, right nostril",[48],4.0 ± 0.3^ cm^3
same,"Volume of the nasal cavity, left nostril",[49],4.0 ± 0.1$ cm^3
same,"Volume of the nasal cavity, right nostril",[49],4.2 ± 0.3 cm^3
same,"Volume of the nasal cavity, left nostril",[50],4.5 ± 0.1 cm^3
same,"Volume of the nasal cavity, right nostril",[50],4.5 ± 0.3 cm^3
same,Tolerance,"oral once daily for 14 days, dogs",not generated
same,duration of the effect,"single oral administration, dogs",at least 6 hours
